Tests used:
[1] = biological target: T1, Alpha-1A adrenergic receptor (Homo sapiens) (UniProt P35348); assay: Efficacy against alpha 1A adrenoceptor in human expressed as phenylephrine response at the dose of 40 uM; format: functional
T1 sequence (whole entry): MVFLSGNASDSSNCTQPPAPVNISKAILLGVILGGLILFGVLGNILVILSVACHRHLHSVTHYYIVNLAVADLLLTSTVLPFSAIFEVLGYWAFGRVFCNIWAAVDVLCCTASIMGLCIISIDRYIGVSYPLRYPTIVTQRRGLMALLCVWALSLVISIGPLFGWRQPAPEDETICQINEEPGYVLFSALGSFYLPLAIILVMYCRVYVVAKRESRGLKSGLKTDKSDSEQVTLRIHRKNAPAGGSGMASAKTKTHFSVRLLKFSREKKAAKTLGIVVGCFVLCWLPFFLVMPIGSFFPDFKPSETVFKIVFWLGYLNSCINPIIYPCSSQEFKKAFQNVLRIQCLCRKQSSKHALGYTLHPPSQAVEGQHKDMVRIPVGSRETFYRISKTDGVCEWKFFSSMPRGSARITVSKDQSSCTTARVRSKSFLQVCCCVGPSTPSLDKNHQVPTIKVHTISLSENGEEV

[2] = biological target: T2, Alpha-1B adrenergic receptor (Homo sapiens, UniProt P35368); assay: Potency against cloned human alpha 1B adrenoceptor expressed in rat-1 fibroblasts.; format: functional
T2 sequence (P35368 whole entry): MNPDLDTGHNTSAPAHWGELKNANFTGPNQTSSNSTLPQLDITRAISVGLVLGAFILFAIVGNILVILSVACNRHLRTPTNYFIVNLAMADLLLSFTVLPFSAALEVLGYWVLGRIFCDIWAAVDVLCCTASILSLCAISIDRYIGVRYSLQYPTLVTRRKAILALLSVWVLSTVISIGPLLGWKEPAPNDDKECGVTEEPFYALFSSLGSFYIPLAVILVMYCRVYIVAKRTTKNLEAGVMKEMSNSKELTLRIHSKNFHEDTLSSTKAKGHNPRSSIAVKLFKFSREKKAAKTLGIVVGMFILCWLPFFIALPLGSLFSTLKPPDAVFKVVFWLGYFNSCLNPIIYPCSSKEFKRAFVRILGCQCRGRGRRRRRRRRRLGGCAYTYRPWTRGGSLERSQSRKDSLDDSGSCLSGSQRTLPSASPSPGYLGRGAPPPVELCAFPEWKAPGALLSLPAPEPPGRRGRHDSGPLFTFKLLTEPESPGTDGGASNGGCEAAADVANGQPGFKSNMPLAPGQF

[3] = biological target: T3, Alpha-1A adrenergic receptor (Homo sapiens, UniProt P35348); assay: Agonist potency against cloned human alpha 1A adrenoceptor expressed in rat-1 fibroblasts.; format: functional
T3 sequence (P35348 whole entry): T1 sequence (whole entry)

[4] = biological target: T4, Alpha-1D adrenergic receptor (Homo sapiens, UniProt P25100); assay: Potency against cloned human alpha 1D-adrenoceptor expressed in rat-1 fibroblasts.; format: functional
T4 sequence (P25100 whole entry): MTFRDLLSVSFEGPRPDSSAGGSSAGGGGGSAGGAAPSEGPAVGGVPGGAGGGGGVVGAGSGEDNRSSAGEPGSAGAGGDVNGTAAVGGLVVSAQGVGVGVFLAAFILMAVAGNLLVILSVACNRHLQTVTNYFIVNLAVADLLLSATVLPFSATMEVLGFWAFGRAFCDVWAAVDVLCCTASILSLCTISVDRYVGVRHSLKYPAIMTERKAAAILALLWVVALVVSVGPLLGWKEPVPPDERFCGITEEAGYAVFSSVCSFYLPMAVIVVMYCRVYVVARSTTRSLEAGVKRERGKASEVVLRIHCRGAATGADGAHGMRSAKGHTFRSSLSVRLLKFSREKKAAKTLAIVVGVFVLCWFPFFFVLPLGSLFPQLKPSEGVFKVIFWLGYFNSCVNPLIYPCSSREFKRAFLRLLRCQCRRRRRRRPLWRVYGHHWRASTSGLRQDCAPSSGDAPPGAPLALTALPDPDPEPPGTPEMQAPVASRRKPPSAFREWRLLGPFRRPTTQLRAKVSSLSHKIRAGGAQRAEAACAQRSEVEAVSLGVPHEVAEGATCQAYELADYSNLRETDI

[5] = biological target: T3, Alpha-1A adrenergic receptor; assay: Concentration required for 50% inhibition of binding against Alpha-1A adrenergic receptor in human
[6] = biological target: T4, Alpha-1D adrenergic receptor; assay: Concentration required for 50% inhibition of binding against human Alpha-1D adrenergic receptor
[7] = biological target: T2, Alpha-1B adrenergic receptor; assay: Concentration required for 50% inhibition of binding against human Alpha-1B adrenergic receptor
[8] = biological target: T5, Alpha-1B adrenergic receptor (Homo sapiens) (UniProt P35368); assay: Efficacy against alpha 1B-adrenoceptor in human expressed as phenylephrine response at the dose of 40 uM.; format: functional
T5 sequence (whole entry): T2 sequence (P35368 whole entry)

[9] = biological target: T6, Alpha-1D adrenergic receptor (Homo sapiens) (UniProt P25100); assay: Tested for efficacy against alpha 1D-adrenoceptor in human expressed as phenylephrine response at the dose of 40 uM; format: functional
T6 sequence (whole entry): T4 sequence (P25100 whole entry)

| SMILES | Max [1] | EC50 [2] | EC50 [3] | EC50 [4] | IC50 [5] | IC50 [6] | IC50 [7] | Max [8] | Max [9] |
| --- | --- | --- | --- | --- | --- | --- | --- | --- | --- |
| CCC(C)OC(=O)c1ccccc1NCC1=NCCN1 (configuration not stated) | 96% | > 5.01 µM | 0.00126 µM | > 5.01 µM | – | – | – | – | – |
| CCCCNC(=O)c1ccccc1NCC1=NCCN1 | 103% | > 5.01 µM | 0.02 µM | > 5.01 µM | 0.468 µM | 1.48 µM | 1.95 µM | – | – |
| O=C(OC1CCCCC1)c1ccccc1NCC1=NCCN1 | – | > 5.01 µM | > 5.01 µM | > 5.01 µM | – | – | – | – | – |
| CCC(C)NC(=O)c1ccccc1NCC1=NCCN1 (configuration not stated) | 82% | > 5.01 µM | 0.501 µM | > 5.01 µM | – | – | – | – | – |
| CCC(CC)OC(=O)c1ccccc1NCC1=NCCN1 | 94% | > 5.01 µM | 0.02 µM | > 5.01 µM | – | – | – | – | – |
| CC(C)OC(=O)c1ccccc1NCC1=NCCN1 | 100% | > 5.01 µM | 0.00316 µM | > 5.01 µM | 0.224 µM | 2 µM | 1.78 µM | – | – |
| Cc1cc(C(C)(C)C)c(O)c(C)c1CC1=NCCN1 | 74% | – | – | – | – | – | – | – | – |
| O=C(OC1CCCC1)c1ccccc1NCC1=NCCN1 | 58% | > 5.01 µM | 0.0398 µM | > 5.01 µM | – | – | – | – | – |
| O=C(c1ccccc1NCC1=NCCN1)N1CCCC1 | 105% | 0.316 µM | 0.126 µM | > 5.01 µM | – | – | – | 79% | – |
| c1ccc(C2CC2)c(OCC2=NCCN2)c1 [CIRAZOLINE] | 93% | 0.0631 µM | 0.0126 µM | – | – | – | – | 72% | 31% |
| O=C(NC1CCCC1)c1ccccc1NCC1=NCCN1 | – | > 5.01 µM | > 5.01 µM | > 5.01 µM | – | – | – | – | – |
| CCN(CC)C(=O)c1ccccc1NCC1=NCCN1 | 105% | 2 µM | 0.0316 µM | > 5.01 µM | 0.851 µM | 6.61 µM | 5.89 µM | 32% | – |
| c1ccc2c(CC3=NCCN3)cccc2c1 [NAPHAZOLINE] | 72% | > 5.01 µM | 0.0631 µM | > 5.01 µM | – | – | – | – | – |
| O=C(NC1CCC1)c1ccccc1NCC1=NCCN1 | – | > 5.01 µM | > 5.01 µM | > 5.01 µM | – | – | – | – | – |
| CCCN(CC)C(=O)c1ccccc1NCC1=NCCN1 | 115% | > 5.01 µM | 0.1 µM | > 5.01 µM | – | – | – | – | – |

More lines, in order of falling EC50 [2], values ahead:

| Max [1] | EC50 [2] | EC50 [3] | EC50 [4] | IC50 [5] | IC50 [6] | IC50 [7] | Max [8] | Max [9] | SMILES |
| --- | --- | --- | --- | --- | --- | --- | --- | --- | --- |
| 99% | 0.251 µM | 0.0158 µM | > 5.01 µM | 1.05 µM | 1.7 µM | 2.24 µM | 50% | – | O=C(NC1CC1)c1ccccc1NCC1=NCCN1 |
| 105% | 0.251 µM | 0.0501 µM | 0.631 µM | 2.04 µM | 6.76 µM | 10.5 µM | 98% | 69% | CCN(C)C(=O)c1ccccc1NCC1=NCCN1 |
| 102% | 0.2 µM | 0.0126 µM | 0.0794 µM | – | – | – | 64% | 33% | CCNC(=O)c1ccccc1NCC1=NCCN1 |
| 104% | 0.158 µM | 0.0126 µM | 0.0631 µM | – | – | – | 105% | 41% | CCOC(=O)c1ccccc1NCC1=NCCN1 |
| 102% | 0.126 µM | 0.0501 µM | 0.316 µM | – | – | – | 95% | 59% | CC(C)NC(=O)c1ccccc1NCC1=NCCN1 |
| 105% | 0.0794 µM | 0.398 µM | 0.398 µM | – | – | – | 106% | 88% | O=C(c1ccccc1NCC1=NCCN1)N1CCCCC1 |
| 104% | 0.0794 µM | 0.02 µM | 0.2 µM | – | – | – | 93% | 58% | CN(C)C(=O)c1ccccc1NCC1=NCCN1 |
| 104% | 0.0794 µM | 0.00794 µM | 0.158 µM | – | – | – | 77% | 69% | CCCNC(=O)c1ccccc1NCC1=NCCN1 |
| 68% | 0.0794 µM | 0.501 µM | 0.251 µM | – | – | – | 90% | 59% | CC(C)COC(=O)c1ccccc1NCC1=NCCN1 |
| 96% | 0.0631 µM | 0.00794 µM | > 5.01 µM | – | – | – | 81% | – | CC(C)(C)OC(=O)c1ccccc1NCC1=NCCN1 |
| 114% | 0.0251 µM | 0.01 µM | 0.0158 µM | – | – | – | 63% | 31% | CCCCOC(=O)c1ccccc1NCC1=NCCN1 |
| 58% | 0.0126 µM | 0.0794 µM | 0.0158 µM | – | – | – | 90% | 31% | CC(C)CNC(=O)c1ccccc1NCC1=NCCN1 |
| 104% | 0.00158 µM | 0.00251 µM | 0.01 µM | 0.214 µM | 0.0891 µM | 0.692 µM | 99% | 115% | CNC(=O)c1ccccc1NCC1=NCCN1 |
| 110% | 0.000398 µM | 0.000794 µM | 0.000501 µM | – | – | – | 107% | 80% | COC(=O)c1ccccc1NCC1=NCCN1 |

Source: ChEMBL document CHEMBL1134725, “2-(Anilinomethyl)imidazolines as alpha(1)-adrenoceptor agonists: the identification of alpha(1A) subtype selective 2'-carboxylic acid esters and amides” (Bioorg Med Chem Lett, 2001)
